Among the data in PubChem BioAssay AID1259407 (Chemical Carcinogenesis Research Information System (CCRIS), 2018) are mutagenic call values, retold here.

Active and inactive are the calls of the source. The rule behind the calls is not given here.

For this series, the system named is CCRIS mutagenicity, Ames/micronucleus/aberration tests. Put plainly: CCRIS mutagenicity studies.
Where [1] appears, read: Test System: AMES SALMONELLA TYPHIMURIUM, Strain/Indicator: TA98, Metabolic Activation: HAMSTER, LIVER, S-9, AROCLOR 1254 (10%), Method: PREINCUBATION
Setting [2] is: Test System: AMES SALMONELLA TYPHIMURIUM, Strain/Indicator: TA98, Metabolic Activation: NONE, Method: PREINCUBATION
Setting [3] is: Test System: AMES SALMONELLA TYPHIMURIUM, Strain/Indicator: TA98, Metabolic Activation: RAT, LIVER, S-9, AROCLOR 1254 (10%), Method: PREINCUBATION
[4] abbreviates: Test System: AMES SALMONELLA TYPHIMURIUM, Strain/Indicator: TA100, Metabolic Activation: HAMSTER, LIVER, S-9, AROCLOR 1254 (10%), Method: PREINCUBATION
[5] abbreviates: Test System: AMES SALMONELLA TYPHIMURIUM, Strain/Indicator: TA100, Metabolic Activation: NONE, Method: PREINCUBATION
Where [6] appears, read: Test System: AMES SALMONELLA TYPHIMURIUM, Strain/Indicator: TA100, Metabolic Activation: RAT, LIVER, S-9, AROCLOR 1254 (10%), Method: PREINCUBATION
Setting [7] is: Test System: AMES SALMONELLA TYPHIMURIUM, Strain/Indicator: TA1535, Metabolic Activation: HAMSTER, LIVER, S-9, AROCLOR 1254 (10%), Method: PREINCUBATION
The mark [8] stands for this setting: Test System: AMES SALMONELLA TYPHIMURIUM, Strain/Indicator: TA1535, Metabolic Activation: NONE, Method: PREINCUBATION
Where [9] appears, read: Test System: AMES SALMONELLA TYPHIMURIUM, Strain/Indicator: TA1535, Metabolic Activation: RAT, LIVER, S-9, AROCLOR 1254 (10%), Method: PREINCUBATION
[10] abbreviates: Test System: AMES SALMONELLA TYPHIMURIUM, Strain/Indicator: TA1537, Metabolic Activation: HAMSTER, LIVER, S-9, AROCLOR 1254 (10%), Method: PREINCUBATION
Setting [11] is: Test System: AMES SALMONELLA TYPHIMURIUM, Strain/Indicator: TA1537, Metabolic Activation: NONE, Method: PREINCUBATION
[12] abbreviates: Test System: AMES SALMONELLA TYPHIMURIUM, Strain/Indicator: TA1537, Metabolic Activation: RAT, LIVER, S-9, AROCLOR 1254 (10%), Method: PREINCUBATION

Regarding `[Cl][Hg][Cl]`, the mutagenic call runs as follows: (End Point: IN VITRO MICRONUCLEUS, Test System: CHINESE HAMSTER V79 CELLS, Metabolic Activation: NONE) “active; positive”; (End Point: IN VITRO MICRONUCLEUS, Test System: CHL/IU CELLS, Metabolic Activation: NONE) “inactive; negative”; (End Point: IN VITRO MICRONUCLEUS, Test System: HUMAN PERIPHERAL LYMPHOCYTES, Metabolic Activation: NONE) “active; positive”; (End Point: IN VIVO MICRONUCLEUS, Test System: RETICULOCYTES, Species: RAT, Strain/Sex: WISTAR/FEMALE, Route: ORAL (GAVAGE)) “active; positive”; under setting [1], “inactive; negative”; under setting [2], “inactive; negative”. In addition, the mutagenic call under setting [3] is “inactive; negative”; the mutagenic call under setting [4] is “inactive; negative”; the mutagenic call under setting [5] was “inactive; negative”; the mutagenic call under setting [6] was “inactive; negative”; the mutagenic call (Test System: AMES SALMONELLA TYPHIMURIUM, Strain/Indicator: TA102, Metabolic Activation: NONE, Method: STANDARD PLATE) was “inactive; negative”; the mutagenic call under setting [7] is “inactive; negative”. The mutagenic call under setting [8] is “inactive; negative”; the mutagenic call under setting [9] was “inactive; negative”; the mutagenic call under setting [10] was “inactive; negative”; the mutagenic call under setting [11] is “inactive; negative”; the mutagenic call under setting [12] is “inactive; negative”; the mutagenic call (Test System: E. COLI, Strain/Indicator: WP2 UVRA, Metabolic Activation: NONE, Method: SPOT TEST) is “inactive; negative”. The mutagenic call (Test System: HUMAN BLOOD LYMPHOCYTES, Strain/Indicator: HUMAN BLOOD LYMPHOCYTES (HPRT)/6-THIOGUANINE, Metabolic Activation: NONE, Method: SUSPENSION/PLATE) was “active; positive” and the mutagenic call (Test System: MOUSE LYMPHOMA, Strain/Indicator: L5178Y (TK+/TK-), Metabolic Activation: NONE, Method: SUSPENSION/PLATE) is “active; positive”.
On to `Clc1c2ccccc2cc2c1ccc1ccccc12`, for which the mutagenic call (Test System: AMES SALMONELLA TYPHIMURIUM, Strain/Indicator: TA98, Metabolic Activation: RAT, LIVER, S-9, AROCLOR 1254, Method: STANDARD PLATE) was “active; positive”; the mutagenic call (Test System: AMES SALMONELLA TYPHIMURIUM, Strain/Indicator: TA100, Metabolic Activation: RAT, LIVER, S-9, AROCLOR 1254, Method: STANDARD PLATE) was “active; positive”; the mutagenic call (Test System: AMES SALMONELLA TYPHIMURIUM, Strain/Indicator: TA100, Metabolic Activation: RAT, LIVER, S-9, PCB, Method: STANDARD PLATE) is “active; positive”.
For `Nc1ccc2ccc3ccccc3c2c1`, the mutagenic call runs as follows: (Test System: AMES SALMONELLA TYPHIMURIUM, Strain/Indicator: TA98, Metabolic Activation: RAT, LIVER, S-9, AROCLOR 1254 (2 OR 4%), Method: STANDARD PLATE) “active; positive”; (Test System: AMES SALMONELLA TYPHIMURIUM, Strain/Indicator: TA100, Metabolic Activation: RAT, LIVER, S-9, AROCLOR 1254 (2%), Method: STANDARD PLATE) “active; positive”; (Test System: AMES SALMONELLA TYPHIMURIUM, Strain/Indicator: TA1535, Metabolic Activation: RAT, LIVER, S-9, AROCLOR 1254 (2%), Method: STANDARD PLATE) “active; positive”; (Test System: AMES SALMONELLA TYPHIMURIUM, Strain/Indicator: TA1537, Metabolic Activation: RAT, LIVER, S-9, AROCLOR 1254 (2%), Method: STANDARD PLATE) “active; positive”.
Turning to `CCCCN`, the mutagenic call was “inactive; negative” under setting [1]; “inactive; negative” under setting [2]; “inactive; negative” under setting [3]; “inactive; negative” under setting [4]; “inactive; negative” under setting [5]; “inactive; negative” under setting [6]. Also, the mutagenic call is, setting by setting: under setting [7], “inactive; negative”; under setting [8], “inactive; negative”; under setting [9], “inactive; negative”; under setting [10], “inactive; negative”; under setting [11], “inactive; negative”; under setting [12], “inactive; negative”.
In the case of `O=C(O)c1ccc(O)c2c1C(=O)c1cc(O)cc(O)c1C2=O`, the mutagenic call (Test System: AMES SALMONELLA TYPHIMURIUM, Strain/Indicator: TA1537, Metabolic Activation: NONE, Method: STANDARD PLATE) was “inactive; negative” and the mutagenic call (Test System: AMES SALMONELLA TYPHIMURIUM, Strain/Indicator: TA1537, Metabolic Activation: RAT, LIVER, S-9, PCB, Method: STANDARD PLATE) was “inactive; negative”.
